Laboratory results published in PMC6177439, “Peptide-oligonucleotide conjugates exhibiting pyrimidine-X cleavage specificity efficiently silence miRNA target acting synergistically with RNase H” (Scientific Reports, 2018).

Key:
[1] = tested on: miR-17; experiment: RNA cleavage assay, miR-17; assay type: biochemical; details: miR-17 1 µM, conjugate 20 µM, 37 °C, 24 h
Protocol: (§1) The reaction mixture (5 µl) contained 10^5 cpm (Cherenkov’s counting) of [^32P]-RNA, 1 μM unlabeled RNA, and one of the conjugates at a concentration ranging from 1 to 100 μM, 50 mM Tris-HCl, pH 7.0, 0.2 M KCl, and 1 mM EDTA. […] To identify cleavage sites, imidazole and T1-ladders produced by partial RNA cleavage with 2 M imidazole buffer (pH 7.0)[41] and with RNase T1[42], respectively, were run in parallel. To obtain quantitative data, gels were dried and analyzed using Molecular Imager FX (Bio-Rad, USA). The total extent of RNA cleavage and the extent of RNA cleavage at each individual site were determined with Quantity One software.

[2] = tested on: 96 nts fragment of HIV-1 RNA; design: method as in PMID 15047859, PMID 16615805; details: non-complementary RNA substrates; cited from earlier work
[3] = tested on: melanoma B16 cells; experiment: xCELLigence real-time analysis of cell proliferation; assay type: cell-based, murine; details: 1 µM with Lipofectamine 2000, 120 h; for cell index: untreated control cell index 5
Protocol: Proliferation experiments were performed using an xCELLigence real-time cell analysis (RTCA) system (ACEABiosciences, USA) in an atmosphere of 5% CO2 at 37 °C. B16 melanoma cells were seeded at a concentration of 5 × 10^3 cells per well of 16-well E-Plates. The following day, the cells were transfected with conjugate 4, control conjugate 7 or oligonucleotide 4 at 1 µM concentration using Lipofectamine™ 2000 (Invitrogen, USA). In 4 h after transfection, the medium in the wells was replaced with DMEM medium containing 10% of FBS and 1% of antibiotics antimycotic solution. Cell proliferation experiments were run for 120 h and Cell Index was monitored every 30 min for the whole experiment duration. Four replications of each cell densities were used in the cell proliferation experiment.

[4] = tested on: miR-17; experiment: miR-17 level in B16 cells by stem-loop qPCR; assay type: cell-based, murine; details: for decrease in the miR-17 level: 24 h after transfection with Lipofectamine 2000, 0.5 and 1 µM, normalized to U6, mean of three independent experiments
Protocol: Murine B16 melanoma cells (1.5–1 × 10^5 per well of 24-well plate) were pre-seeded in DMEM containing 10% FBS a day before transfection and were incubated at 37 °C in a humidified atmosphere with 5% CO2. Before the transfection, the medium was replaced by serum-free and antibiotic-free DMEM, and cells were incubated for 4 h with 0.05–1 µM of conjugate 4 precomplexed with Lipofectamine 2000 (Invitrogen, USA) in Opti-MEM medium according to manufacturer’s instructions. Then, the medium was replaced by culture medium containing 10% FBS and 1% antibiotic antimycotic solution ([…] streptomycin, 10000 IU/mL penicillin, and 25 µg/mL amphotericin), and the cells were cultivated for 24 h under the same conditions. After 24 h, total RNA was isolated from the cells using TRIzol Reagent (Invitrogen, USA) according to the manufacturer’s protocol.
Expression of miR-17, miR-21, miR-18a and let-7g in B16 cells was analyzed using stem-loop PCR technology[43],[44]. cDNA synthesis was carried out using SuperScript III reverse transcriptase (SSIII RT, Invitrogen, USA) as previously described. The RT and PCR primers used in the study are presented in Table S1 (Supplementary information). PCR amplification was carried out in a total volume of 20 µl, using Maxima Hot Start Taq DNA polymerase (Thermo Scientific, USA), 1 × PCR Buffer, 1.5 mM MgCl2, 0.2 mM dNTPs, 1 × EvaGreen (Biotium, Hayward, USA), and […] of PCR sense and antisense primers. The reaction was performed with initial preheating at 94 °C for 4 min and 40 cycles of 94 °C for 40 s, 61 °C for 30 s, and 72 °C for 30 s, followed by melting point determination. The obtained PCR data were analyzed using standard Bio-Rad iQ5 v.2.0 software. For each sample, the threshold cycle (Ct) was determined. Quantitative assessment of the level of transcripts representation and relative miRNA expression was performed by comparing the Ct values for miR-17 and a reference U6.

[5] = tested on: let 7-g; experiment: Off-target let-7g level in B16 cells by stem-loop qPCR; assay type: cell-based, murine; details: 1 µM, 24 h, Lipofectamine 2000, normalized to U6
[6] = tested on: miR-21; experiment: Off-target miR-21 level in B16 cells by stem-loop qPCR; assay type: cell-based, murine; details: 1 µM, 24 h, Lipofectamine 2000, normalized to U6
[7] = tested on: miR-18a; experiment: Off-target miR-18a level in B16 cells by stem-loop qPCR; assay type: cell-based, murine; details: 1 µM, 24 h, Lipofectamine 2000, normalized to U6
[8] = tested on: E2F1; experiment: Western blot of miR-17 protein target E2F1 in B16 cells; assay type: cell-based, murine; details: 1 µM, 72 h after transfection, GAPDH internal control
Protocol: Cell lysates were separated in 12.5% SDS-PAGE and transferred to a PVDF membrane using a semi-dry transfer. The membranes were blocked for 1 h in 3% nonfat dried milk in TBST (20 mM Tris- HCl, pH 7.6,137mMNaCl, 0.1% Tween), and incubated with primary antibodies against E2F1 (ab179445, Abcam, UK, 1:500) and reference protein GAPDH (ab9485, Abcam, UK, 1:1000) at +4 °C for night. After three washes with TBST, membranes were incubated with secondary HRP-conjugated goat anti-rabbit antibodies (ab6721, Abcam, UK) at room temperature for 1 h. After three washes with TBST luminescence detection was performed by Versadoc 4000 MP (Bio-Rad, USA) using Chemiluminescent reagent kit (Abcam, USA). Data were analyzed using GelPro 4.0 software (Media Cybernetics, USA).

[9] = tested on: miR-17; experiment: Cleavage of duplexes miR-17/ON and miR-17/conjugate by RNase H; assay type: biochemical; details: miR-17 10 µM, conjugate 5 µM, 37 °C
Protocol: The reaction mixture (10 µl) contained 10^5 cpm (Cherenkov’s counting) of [^32P]-miR-17, 10 µM unlabeled miR-17, oligonucleotide 4 or conjugate 4 at a concentration of 5 µM, 50 mM Tris-HCl, pH 7.0, 0.2 M KCl, and 1 mM EDTA was incubated at 37 °C for 20 min. Then, RNase H (Thermo Scientific, USA) was added to the reaction mixture to a final concentration 100 U/ml and incubated at 37 °C. At different time points, 30 min and 1, 2, 4, 8, and 24 h, an aliquot was taken and the reaction was quenched by precipitation of RNA with 2% LiClO4 in acetone. RNA cleavage products were analyzed by electrophoresis in denaturing gel as described above.

[10] = tested on: miR-21; experiment: RNA cleavage assay, miR-21; assay type: biochemical; details: miR-21 1 µM, conjugate 100 µM, 37 °C, 0-144 h
Protocol: as §1

[11] = tested on: miR-21^hybrid; experiment: RNA cleavage assay, miR-21^hybrid; assay type: biochemical; details: RNA 1 µM, conjugate 20 µM, 37 °C, 24 h time point
Protocol: as §1

[12] = tested on: miR-21; experiment: Gel-retardation assay, hybridization with miR-21; assay type: binding; details: at equimolar concentration and higher; miR-21 1 µM, 0.5-10 µM oligonucleotide or conjugate, 37 °C, 1 h, 50 mM Tris-HCl pH 7.0, 0.2 M KCl, 1 mM EDTA, 15% native PAAG
Protocol: The samples were loaded onto the running gel immediately after quenching the reaction with an interval of 1 min. […] To obtain quantitative data, gels were dried and analyzed using Molecular Imager FX (Bio-Rad, USA). The extent of binding of oligonucleotide to miR-21 was determined using Quantity One software as a ratio of radioactivity measured in the complex to the total radioactivity applied onto the gel lane.

Substance: NH2—Gly(ArgLeu)4—P—TCAA—(DEG)—CTGTAAGCACTTTGGTCAGCGAAAGCTGAC [conjugate 5, miRNase targeted to miR-17, as conjugate 4 with single DEG linker]
- cleavage of miR-17 at a 20-fold excess of conjugate [1]: 3%

Substance: NH2-Gly(ArgLeu)4-TCAA [short peptide-oligonucleotide conjugate, small chemical ribonuclease used as catalytic construction]
- cleavage specificity [2]: Pyr-A cleavage specificity

Substance: NH2—Gly(ArgLeu)4—P—TCAA—(DEG)2—CTGTAAGCACTTTGGTCAGCGAAAGCTGAC [conjugate 4]
- cleavage of miR-17 at a 20-fold excess of conjugate [1]: 9%
- cell index [3]: 1
- fold decrease of growth rate / inhibition of cell proliferation ([3]; versus untreated cells): 5 fold
- advantage in inhibition efficiency in comparison with antisense oligonucleotide 4 [4]: 2 fold
- decrease in the miR-17 level [4]: 80%
- lowest concentration with statistically significant reduction of miR-17 level ([4]; 24 h after transfection, range 0.05-1 µM): 0.1 µM
- expression level of let 7-g versus controls [5]: no statistically significant differences
- expression level of miR-21 versus controls [6]: no statistically significant differences
- expression level of miR-18a versus controls [7]: no statistically significant differences
- increase of the level of E2F1 protein as compared with control [8]: 2.2 fold
- increase of conjugate activity (miR-17 cleavage at conjugate sites) in the presence of RNase H ([9]; RNase H 100 U/ml): 11 fold
- miR-17 cleavage at RNase H sites during the first 2 h, with RNase H ([9]; RNase H 100 U/ml, 2 h): 45%
- miR-17 cleavage at sites C17-A18 and U21-A22 after 4 h, with RNase H ([9]; RNase H 100 U/ml, 4 h): 47%
- miR-17 destroyed after 8 h, with RNase H ([9]; RNase H 100 U/ml, 8 h): 95%
- miR-17 cleavage by conjugate alone under two-fold excess of RNA ([9]; no RNase H, 24 h): 9%

Substance: NH2—Gly(ArgLeu)4—P—TCAA—(TrEG)2—CGATAAATAACGCGCAAGTCAGCGAAAGCTGACTTG [conjugate 7, control conjugate addressed to luciferase mRNA]
- cell index [3]: 3.2
- decrease in the miR-17 level [4]: does not evoke any statistically significant reduction
- increase of the level of E2F1 protein as compared with control [8]: no statistically significant change

Substance: NH2—Gly(ArgLeu)4—P—TCAA—(DEG)2—TCTGATAAGCTACGTAGCGAAAGCTACG [conjugate 2]
- cleavage efficiency of miR-21 at a 100-fold excess of conjugate [10]: 50%
- total extent of miR-21^hybrid cleavage at a 20-fold excess of conjugates [11]: 85%
- hybridization (binding) efficiency with miR-21 [12]: 48%

Substance: NH2—Gly(ArgLeu)4—P—TCAA—(DEG)2—AGT CTG ATA AGC TA [conjugate 1, peptide-oligonucleotide conjugate (miRNase) targeted to miR-21, linear 14 nt oligonucleotide, double DEG linker]
- cleavage efficiency of miR-21 at a 100-fold excess of conjugate [10]: 50%
- total extent of miR-21^hybrid cleavage at a 20-fold excess of conjugates [11]: 55%
- hybridization (binding) efficiency with miR-21 [12]: 25%

Substance: NH2—Gly(ArgLeu)4—P— (DEG)2—CTGTAAGCACTTTGGTCAGCGAAAGCTGAC [conjugate 6]
- cleavage of miR-17 at a 20-fold excess of conjugate [1]: complete loss of ribonuclease activity
